The record followed here is patent publication US8101754B2, “Triazole compounds suitable for treating disorders that respond to modulation of the dopamine D3 receptor” (Abbott GmbH & Co. KG, priority 2004, dated 2012).

Like-named read-outs stand apart in the source and are kept apart here.

Data set [1] concerns the target T1, human dopamine D3 receptors (Homo sapiens, UniProt P35462).
T1 construct: expressed in transfected cells; membranes)
The data set can be described thus: Dopamine D3 receptor binding ([125I]-iodosulpride displacement). As for the experimental part:
The substance to be tested was either dissolved in methanol/Chremophor® (BASF-AG) or in dimethyl sulfoxide and then diluted with water to the desired concentration.
Each assay mixture was run in triplicate.
The incubation buffer contained 50 mM tris, 120 mM NaCl, 5 mM KCl, 2 mM CaCl2, 2 mM MgCl2 and 0.1% bovine serum albumin, 10 μM quinolone and 0.1% ascorbic acid (prepared fresh daily). The buffer was adjusted to pH 7.4 with HCl.
Measurement and Analysis:
After having been incubated at 25° C. for 60 minutes, the assay mixtures were filtered through a Wathman GF/B glass fiber filter under vacuum using a cell collecting device. The filters were transferred to scintillation viols using a filter transfer system. After 4 ml of Ultima Gold® (Packard) have been added, the samples were shaken for one hour and the radioactivity was then counted in a Beta-Counter (Packard, Tricarb 2000 or 2200CA). The cpm values were converted into dpm using a standard quench series and the program belonging to the instrument.
The inhibition curves were analyzed by means of iterative nonlinear regression analysis using the Statistical Analysis System (SAS) which is similar to the “LIGAND” program described by Munson and Rodbard.

The nature of data set [2]: Concentration of compounds in plasma and brain following oral dosing. The class given is in vivo, Sprague-Dawley rats. To be noted: male rats, 10 mg/kg orally by gavage. As for the experimental part: 2. Determination of the Concentration of Compounds in Plasma and Brain Following Dosing of Compounds in Animals
Male Sprague-Dawley rats were used in this study (2 to 4 per experiment). The animals were fasted overnight prior to dosing and throughout the duration of the study but were permitted water ad libitum.
Each rat received a 10 mg/kg (5 mL/kg) dose orally by gavage. At 0.5, 3 and 8 hours after drug administration, three animals were put under deep anesthesia using isoflurane and euthanized by bleeding (cardiac puncture) under deep isoflurane anesthesia. EDTA blood samples and brain tissue will be collected from each rat. Upon collection, the samples were promptly placed in an ice bath, and within 2 hours after sample collection, the blood was centrifuged at about 4° C. The resulting brain and plasma samples were placed in clean glass tubes and stored in a freezer until analysis.
The plasma samples were assayed for parent compound using appropriate liquid chromatography—mass spectrometry procedures. The results for compounds I are given in tables 2, and illustrate the high brain concentrations attainable with the compounds of the invention.

The target of data set [3] is T2, human dopamine D2L receptors (long isoform) (Homo sapiens, UniProt P14416).
T2 construct: expressed in transfected cells; membranes)
T2 sequence (P14416 whole entry, canonical isoform): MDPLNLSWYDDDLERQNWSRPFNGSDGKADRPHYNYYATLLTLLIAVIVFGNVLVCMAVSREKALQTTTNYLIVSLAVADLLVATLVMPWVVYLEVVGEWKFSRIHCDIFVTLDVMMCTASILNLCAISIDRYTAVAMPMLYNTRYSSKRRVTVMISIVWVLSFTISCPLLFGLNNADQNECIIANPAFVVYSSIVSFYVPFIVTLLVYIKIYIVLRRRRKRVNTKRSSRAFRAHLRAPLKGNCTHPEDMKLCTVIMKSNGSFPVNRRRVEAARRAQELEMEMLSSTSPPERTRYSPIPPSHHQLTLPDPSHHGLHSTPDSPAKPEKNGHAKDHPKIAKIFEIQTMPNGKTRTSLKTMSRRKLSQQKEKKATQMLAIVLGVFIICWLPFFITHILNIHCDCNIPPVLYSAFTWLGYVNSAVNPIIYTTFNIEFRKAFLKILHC
The data set is described as follows: Dopamine D2L receptor binding ([125I] iodospiperone), basis of selectivity Ki(D2)/Ki(D3). The settings on record: for Selectivity [Ki(D2)/Ki(D3)]: D2L vs D3; for D2/D3: Table 7, compounds of formula IIa. As for the experimental part: The substance to be tested was either dissolved in methanol/Chremophor® (BASF-AG) or in dimethyl sulfoxide and then diluted with water to the desired concentration. […] Each assay mixture was run in triplicate. The incubation buffer contained 50 mM tris, 120 mM NaCl, 5 mM KCl, 2 mM CaCl2, 2 mM MgCl2 and 0.1% bovine serum albumin. The buffer was adjusted to pH 7.4 with HCl. Measurement and Analysis: After having been incubated at 25° C. for 60 minutes, the assay mixtures were filtered through a Wathman GF/B glass fiber filter under vacuum using a cell collecting device. The filters were transferred to scintillation viols using a filter transfer system. After 4 ml of Ultima Gold® (Packard) have been added, the samples were shaken for one hour and the radioactivity was then counted in a Beta-Counter (Packard, Tricarb 2000 or 2200CA). The cpm values were converted into dpm using a standard quench series and the program belonging to the instrument. The inhibition curves were analyzed by means of iterative nonlinear regression analysis using the Statistical Analysis System (SAS) which is similar to the “LIGAND” program described by Munson and Rodbard.

Where [4] appears, read: Table 5, membranes of HEK-293 cells, read-out: Ki D3.
The mark [5] stands for this setting: Table 6, membranes of HEK-293 cells, read-out: ki D3.
The mark [6] stands for this setting: Table 7, compounds of formula IIa, read-out: D3.
Where [7] appears, read: compounds II, read-out: Ki D3 values.

T1 sequence (P35462 whole entry): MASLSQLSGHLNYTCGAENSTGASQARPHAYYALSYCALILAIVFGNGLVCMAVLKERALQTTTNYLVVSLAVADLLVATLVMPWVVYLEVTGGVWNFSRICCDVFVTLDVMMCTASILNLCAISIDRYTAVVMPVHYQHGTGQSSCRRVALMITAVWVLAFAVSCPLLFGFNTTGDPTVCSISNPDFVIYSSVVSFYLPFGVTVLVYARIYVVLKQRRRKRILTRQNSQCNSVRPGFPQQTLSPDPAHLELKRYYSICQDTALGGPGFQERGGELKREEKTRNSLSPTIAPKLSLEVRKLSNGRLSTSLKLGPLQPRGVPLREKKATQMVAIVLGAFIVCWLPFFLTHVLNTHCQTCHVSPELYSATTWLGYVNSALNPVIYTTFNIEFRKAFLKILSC

Consider `Cc1nnc([S+]([O-])CCCN2CCN(c3cc(C(C)(C)C)nc(C(C)(C)C)n3)CC2)n1C` (racemic) [Example 1, 2,4-Di-tert-butyl-6-{4-[3-(4,5-dimethyl-4H-[1,2,4]triazole-3-sulfinyl)-propyl]-piperazin-1-yl}-pyrimidine], for which the Ki in data set [1] (setting [4]) turned out to be 19.5 nM. For the same compound, in data set [2] (Table 5), the Brain level came out at 1670 ng/g. For the same compound, in data set [3] (Table 5), the “Selectivity [Ki(D2)/Ki(D3)]” value worked out at 26.

As for `Cc1nnc(S(=O)(=O)CCCN2CCN(c3cc(C(C)(C)C)nc(C(C)(C)C)n3)CC2)n1C` [Example 4, 2,4-Di-tert-butyl-6-{4-[3-(4,5-dimethyl-4H-[1,2,4]triazole-3-sulfonyl)-propyl]-piperazin-1-yl}-pyrimidine], the Ki in data set [1] (setting [4]) was 6.1 nM. This compound returned a Brain level in data set [2] (Table 5) of 1920 ng/g. For the same compound, the “Selectivity [Ki(D2)/Ki(D3)]” value in data set [3] (Table 5) worked out at 34.

For `CC(C)c1cc(N2CCN(CCCS(=O)(=O)c3nncn3C)CC2)nc(C(C)(C)C)n1` [Example 23, 2-tert-Butyl-4-{4-[3-(4-methyl-1H-[1,2,4]triazole-3-sulfonyl)-propyl]-piperazin-1-yl}-6-isopropyl-pyrimidine], in data set [1] (setting [5]), the Ki turned out to be 59.8 nM. The “Selectivity [Ki(D2)/Ki(D3)]” value in data set [3] (Table 6) came to 49.

`Cn1cnnc1S(=O)(=O)CCCN1CCN(c2cc(C3CCCC3)nc(C(C)(C)C)n2)CC1` [Example 24, 2-tert-Butyl-4-{4-[3-(4-methyl-1H-[1,2,4]triazole-3-sulfonyl)-propyl]-piperazin-1-yl}-6-cyclopentyl-pyrimidine]: the Ki in data set [1] (setting [5]) was found to be 7.5 nM. For the same compound, in data set [3] (Table 6), the “Selectivity [Ki(D2)/Ki(D3)]” value is 20.

With `Cn1cnnc1[S+]([O-])CCCN1CCN(c2cc(C3CCCC3)nc(C(C)(C)C)n2)CC1` (stereo not drawn) [Example 25, 2-tert-Butyl-4-{4-[3-(4-methyl-1H-[1,2,4]triazole-3-sulfinyl)-propyl]-piperazin-1-yl}-6-cyclopentyl-pyrimidine], the Ki in data set [1] (setting [5]) came out at 23.3 nM. Also, the “Selectivity [Ki(D2)/Ki(D3)]” value in data set [3] (Table 6) was 30.

As to `CCCc1cc(N2CCN(CCCS(=O)(=O)c3nncn3C)CC2)nc(C(C)(C)C)n1` [Example 26, 2-tert-Butyl-4-{4-[3-(4-methyl-1H-[1,2,4]triazole-3-sulfonyl)-propyl]-piperazin-1-yl}-6-propyl-pyrimidine], in data set [1] (setting [5]), the Ki came out at 44.6 nM. Also, the “Selectivity [Ki(D2)/Ki(D3)]” value in data set [3] (Table 6) was 33.

As for `Cn1cnc(S(=O)(=O)CCCN2CCN(c3cc(C(C)(C)C)nc(C(C)(C)C)n3)CC2)n1` [Example 27, 2,6-di-tert-Butyl-4-{4-[3-(1-methyl-1H-[1,2,4]triazole-3-sulfonyl)-propyl]-piperazin-1-yl}-pyrimidine], the Ki in data set [1] (setting [5]) was found to be 9.7 nM. Moreover, the “Selectivity [Ki(D2)/Ki(D3)]” value in data set [3] (Table 6) stood at 24.

Consider `CCCc1cc(N2CCN(CCC[S+]([O-])c3ncn(C)n3)CC2)nc(C(C)(C)C)n1.Cl` (stereo not drawn) [Example 28, 2-tert-Butyl-4-{4-[3-(1-methyl-1H-[1,2,4]triazole-3-sulfinyl)-propyl]-piperazin-1-yl}-6-propyl-pyrimidine hydrochloride], for which, in data set [1] (setting [5]), the Ki was found to be 9.9 nM. Also, the “Selectivity [Ki(D2)/Ki(D3)]” value in data set [3] (Table 6) came to 158.

As for `CCCc1cc(N2CCN(CCCS(=O)(=O)c3ncn(C)n3)CC2)nc(C(C)(C)C)n1` [Example 29, 2-tert-Butyl-4-{4-[3-(1-methyl-1H-[1,2,4]triazole-3-sulfonyl)-propyl]-piperazin-1-yl}-6-propyl-pyrimidine], the Ki in data set [1] (setting [5]) was 20.3 nM. The “Selectivity [Ki(D2)/Ki(D3)]” value in data set [3] (Table 6) was 59.

`Cl.Cn1cnc([S+]([O-])CCCN2CCN(c3cc(C(C)(C)C)nc(C(C)(C)C)n3)CC2)n1` (stereo not drawn) [Example 30, 2,6-di-tert-Butyl-4-{4-[3-(1-methyl-1H-[1,2,4]triazole-3-sulfinyl)-propyl]-piperazin-1-yl}-pyrimidine hydrochloride]: in data set [1] (setting [5]), the Ki was 3.5 nM. In data set [3] (Table 6), the “Selectivity [Ki(D2)/Ki(D3)]” value stood at 51.

On to `CC(C)(C)c1nc(N2CCN(CCCS(=O)(=O)c3nc[nH]n3)CC2)cc(C2(C)CC2)n1` [Example 31, 2-tert-butyl-6-{4-[3-(1H-[1,2,4]triazole-3-sulfonyl)-propyl]-piperazin-1-yl}-6-(1-methyl)cyclopropyl-pyrimidine], for which, in data set [1] (setting [5]), the Ki is 22.6 nM. In addition, in data set [3] (Table 6), the “Selectivity [Ki(D2)/Ki(D3)]” value was determined as 37.

On to `COCc1nnc(SCCCN2CCN(c3cc(C(F)F)nc(C(C)(C)C)n3)CC2)n1C.Cl` [c.4, 2-tert-Butyl-4-{4-[3-(4-methyl-5-methoxymethyl-4H-[1,2,4]triazol-3-ylsulfanyl)-propyl]-piperazin-1-yl}-6-difluoromethyl-pyrimidine hydrochloride], for which the Ki is 1.5 nM in data set [1] (setting [6]) and below 5 nM in data set [1] (setting [7]). Moreover, the Brain level in data set [2] (Table 7) is 290 ng/g. The compound also displayed a D2/D3 in data set [3] of 96.

Take `Cl.Cn1c(SCCCN2CCN(c3cc(C(F)F)nc(C(C)(C)C)n3)CC2)nnc1C(C)(C)C` [c.7, 2-tert-Butyl-4-{4-[3-(4-methyl-5-tert-butyl-4H-[1,2,4]triazol-3-ylsulfanyl)-propyl]-piperazin-1-yl}-6-difluoromethyl-pyrimidine hydrochloride]: the Ki in data set [1] (setting [6]) is 1.2 nM; in data set [1] (setting [7]), below 5 nM. Besides, in data set [3], the D2/D3 is 115.

Take `CCCc1cc(N2CCN(CCCSc3nnc(CC)n3C)CC2)nc(C(C)(C)C)n1.Cl` [c.11, 2-tert-Butyl-4-{4-[3-(4-methyl-5-ethyl-4H-[1,2,4]triazol-3-ylsulfanyl)-propyl]-piperazin-1-yl}-6-propyl-pyrimidine hydrochloride]: in data set [1] (setting [6]), the Ki was determined as 1.7 nM. In addition, in data set [2] (Table 7), the Brain level stood at 840 ng/g. In data set [3], this compound showed a D2/D3 of 470.

With `CCCc1cc(N2CCN(CCCSc3nnc(COC)n3C)CC2)nc(C(C)(C)C)n1.Cl` [c.12, 2-tert-Butyl-4-{4-[3-(4-methyl-5-methoxymethyl-4H-[1,2,4]triazol-3-ylsulfanyl)-propyl]-piperazin-1-yl}-6-propyl-pyrimidine hydrochloride], the Ki in data set [1] (setting [6]) was 2.4 nM; in data set [1] (setting [7]), below 5 nM. In data set [2] (Table 7), this compound came in with a Brain level of 780 ng/g. In addition, the D2/D3 in data set [3] came out at 143.

In the case of `Cl.Cn1c(SCCCN2CCN(c3cc(C(F)(F)F)nc(C(C)(C)C)n3)CC2)nnc1C(F)(F)F` [c.13, 2-tert-Butyl-4-{4-[3-(4-methyl-5-trifluoromethyl-4H-[1,2,4]triazol-3-ylsulfanyl)-propyl]-piperazin-1-yl}-6-trifluoromethyl-pyrimidine hydrochloride], the Ki in data set [1] (setting [6]) is 1.3 nM. For the same compound, the D2/D3 in data set [3] is recorded as 157.

For `Cc1nnc(SCCCN2CCN(c3cc(C(F)(F)F)nc(C(C)(C)C)n3)CC2)n1C.Cl` [c.14, 2-tert-Butyl-4-{4-[3-(4-methyl-5-methyl-4H-[1,2,4]triazol-3-ylsulfanyl)-propyl]-piperazin-1-yl}-6-trifluoromethyl-pyrimidine hydrochloride], the Ki in data set [1] (setting [6]) is 1.5 nM. In data set [3], the D2/D3 amounted to 135.

Take `COCc1nnc(SCCCN2CCN(c3cc(C(F)(F)F)nc(C(C)(C)C)n3)CC2)n1C.Cl` [c.16, 2-tert-Butyl-4-{4-[3-(4-methyl-5-methoxymethyl-4H-[1,2,4]triazol-3-ylsulfanyl)-propyl]-piperazin-1-yl}-6-trifluoromethyl-pyrimidine hydrochloride]: the Ki in data set [1] (setting [6]) was 0.65 nM; in data set [1] (setting [7]), below 5 nM. In data set [3], this compound showed a D2/D3 of 237.

Take `CC(=O)O.Cn1c(SCCCN2CCN(c3cc(C(F)(F)F)nc(C(C)(C)C)n3)CC2)nnc1C1CCC1` [c.18, 2-tert-Butyl-4-{4-[3-(4-methyl-5-cyclobutyl-4H-[1,2,4]triazol-3-ylsulfanyl)-propyl]-piperazin-1-yl}-6-trifluoromethyl-pyrimidine acetate]: the Ki was 2.9 nM in data set [1] (setting [6]) and below 5 nM in data set [1] (setting [7]). This compound also had a D2/D3 in data set [3] of 134.
